Test [1] in a line: Selectivity ratio for inhibition of Protein phosphatase 1 and Protein phosphatase 2A.
A short description of test [2]: Inhibition of protein phosphatase 1 (PP1) was determined by standard phosphorylase a inhibition assay. Set-up: species or system Oryctolagus cuniculus.

Each structure is given as a SMILES string.

In general, IC50 refers to the concentration needed to halve the response being measured. Low values mean higher potency, high ones lower potency. Take `CO[C@@H]([C@H](O)CC(=O)[C@@H](C)[C@@H](O)CC[C@@H](C)[C@@H]1O[C@]2(CC[C@@H](C)[C@H](CC[C@H](C)C(C)=O)O2)CC[C@@H]1C)[C@H](OC(=O)CCCP(=O)(O)O)C(C)C`: the Selectivity ratio in test [1] turned out to be 2. In test [2], this compound registered an IC50 of 150 µM.

In test [2], `CO[C@H]([C@H](O)CC(=O)[C@@H](C)[C@@H](O)CC[C@@H](C)[C@@H]1O[C@]2(CC[C@@H](C)[C@H](CC[C@H](C)C(C)=O)O2)CC[C@@H]1C)[C@H](OC(=O)C[C@@H](O)C1=C(C)C(=O)OC1=O)C(C)C` [TAUTOMYCIN] had an IC50 of 1.9 µM.

As for `CO[C@@H]([C@H](O)CC(=O)[C@@H](C)[C@@H](O)CC[C@@H](C)[C@@H]1O[C@]2(CC[C@@H](C)[C@H](CC[C@H](C)C(C)=O)O2)CC[C@@H]1C)[C@H](OC(=O)C[C@](C)(O)C(=O)O)C(C)C`, the Selectivity ratio in test [1] was 1.5. In addition, the IC50 in test [2] stood at 19 µM.

In the case of `CO[C@@H]([C@H](O)CC(=O)[C@@H](C)[C@@H](O)CC[C@@H](C)[C@@H]1O[C@]2(CC[C@@H](C)[C@H](CC[C@H](C)C(C)=O)O2)CC[C@@H]1C)[C@H](OC(=O)C[C@H](O)C1=C(C)C(=O)OC1=O)C(C)C`, the IC50 in test [2] was 0.13 µM.

Regarding `CO[C@@H]([C@H](O)CC(=O)[C@@H](C)[C@@H](O)CC[C@@H](C)[C@@H]1O[C@]2(CC[C@@H](C)[C@H](CC[C@H](C)C(C)=O)O2)CC[C@@H]1C)[C@H](OC(=O)C[C@@H](O)/C=C(\C)C(=O)O)C(C)C`, in test [1], the Selectivity ratio is 1.9. The IC50 in test [2] was 2.1 µM.

Consider `CO[C@@H]([C@H](O)CC(=O)[C@@H](C)[C@@H](O)CC[C@@H](C)[C@@H]1O[C@]2(CC[C@@H](C)[C@H](CC[C@H](C)C(C)=O)O2)CC[C@@H]1C)[C@H](OC(=O)C[C@@](C)(O)C(=O)O)C(C)C`, for which the Selectivity ratio in test [1] is 1.3. This compound yielded an IC50 in test [2] of 80 µM.

Values taken from ChEMBL document CHEMBL1145771 (Bioorg Med Chem Lett, 2003).
